The test system of one data set is senescent cells. The experiment in a line: Senescent cell killing, CellTiter-Glo cell viability. The format is cell-based, human, mouse. The conditions noted are these: activity of killing senescent cells; cell type not specified. From the text:
In this test example, human non-small cell lung cancer cell line (A549 cells), human embryonic lung fibroblast cell line (IMR90 cells), human retinal pigment epithelial cells (RPE cells), mouse chondrocytes, and mouse skin fibroblasts were selected. The above cells were induced by etoposide ([…]) to obtain their senescent cells. The effect of the target compounds on the viability of normal and senescent cells above was examined, thus assessing the specific killing effect of the compounds on senescent cells above.
Briefly, senescent and normal cells above were selected and plated separately (96-well plates). […] 2A to 2E.
Background: In ATP-based viability assays light output follows the ATP content of the culture.

For data set [1] the following is noted: cited from earlier work.
Data set [2] relates to platelets. Conditions: under in vivo conditions; cited from earlier work.
For data set [3] the following is noted: rats; cited from earlier work.
Data set [4] relates to platelets. Kind of data set: Platelet toxicity test in mice (platelet count). In kind it is in vivo. Conditions: mice, 0.5 mg/kg single intraperitoneal injection, blood at 6 hours, FIG. 1. How it is done:
In this test example, C57 mice were chosen to detect the effect of the target compounds on platelets.
7 to 8 weeks old […] mice were randomly divided into vehicle group and compound group. The test compound (0.5 mg/kg) or blank vehicle was administrated via single intraperitoneal injection. Blood was collected from the retroorbital venous plexus of the mice at 6 hours, and placed in a blood routine tube containing anticoagulant EDTA-K2. After shaking gently, the blood physiological indicators were measured using a hematology analyzer, with the platelet count as the target parameter for this platelet toxicity test.

A short description of data set [5]: Solubility test in pure water. The format is physicochemical. The method, then:
The following test protocol was used for the solubility tests of the compounds of the present invention:
1). The compounds to be tested were precisely weighed respectively, and formulated to a corresponding concentration (l mg/mL or 10 mg/mL) by adding a corresponding volume of pure water vortically shook for 1 minute every 3 minutes for 15 minutes to observe the dissolution, and then the dissolution was observed again after standing for 1 hour. 2). 0.2 mL of 1 mg/mL compound or sodium salt thereof was took, diluted to 0.1 mg/mL respectively by adding 1.8 mL water, vortically shook for 5 minutes to observe the dissolution, and then the dissolution was observed again after standing for 1 hour. 3). 1 mL of 1 mg/mL compound or sodium salt thereof was took, diluted to 0.5 mg/mL by adding 1 mL water, vortically shook for 5 minutes to observe the dissolution, and then the dissolution was observed again after standing for 1 hour.

We go through one compound from patent US20260256772A1, “BENZOTHIAZOLE COMPOUND AND USE THEREOF” (NANJING REJU THERAPEUTICS, INC., priority 2022, published 2026).

As to `Cc1c(-c2ccc(N3CCc4cccc(C(=O)Nc5nc6ccccc6s5)c4C3)nc2C(=O)O)cnn1CC12CC3CC(CC(C3)C1)C2` [Compound A-1331852], the IC50 in the data set with senescent cells fell in the range of 0.2 to 1 µM. For the same compound, in data set [1], the solubility in water entry is recorded as “low solubility in water”. In addition, the platelet toxicity entry in the data set with platelets [2] is listed as “significant platelet toxicity”. For the same compound, the oral bioavailability result in data set [3] is reported as “about 11%”. For the same compound, the “platelet toxicity (platelet count)” value in the data set on platelets [4] is reported as “severe platelet toxicity”. Further, the During shaking entry in data set [5] (formulated concentration 0.10 mg/mL in pure water) and in data set [5] (formulated concentration 1 mg/mL in pure water) was “Visible solute particles” each time.

What is called IC50 is the concentration that gives 50% inhibition. Low readings indicate inhibition by little substance, high ones a need for much substance.
